Laboratory results taken from patent publication US20030003579A1, “Dendritic cells; methods” (priority 2000, published 2003).

Legend:
[1] = test system: pre-DC2; experiment: Viability of pre-DC2 by propidium iodide staining and flow cytometry; format: cell-based, human; settings: 24 h culture
Procedure: (§1) Underlines indicate palindromic sequences. ODNs 1668, 2117, and 2006 are phosphorothioate forms, and ACC-30, AAC-30, and GAC-30 are phosphodiester forms. The phosphorothioate ODNs were added at 0 h at 0.1 μM or 1 μM, and the phosphodiester ODNs were added at 0, 4, and 16 h, 5 μM at each time point, to compensate for their degradation by deoxyribonuclease activity in media.
(§2) Monocytes, CD11c^+ DC, and pre-DC2 were isolated from human peripheral blood. See Grouard, et al. (1997) J. Exp'l Med. 185:1101-1111; and Kadowaki, et al. (2000) J. Exp'l Med. 192:219-226. The cells were cultured for 24 h in RPMI1640 containing 10% FCS at 2×10^4/200 μl in round-bottom 96-well culture plates in the presence of ODNs or 50 μg/ml poly I:C (Sigma). Adult dermal fibroblasts (Clonetics) were maintained as recommended by the company, and were stimulated with 50 μg/ml poly I:C for 24 h at 7.5×10^4/ml in 12-well culture plates.
IV. Analysis of viability of pre-DC2 stimulated with ODNs or poly I:C Pre-DC2 cultured for 24 h without stimulation or with ODNs or poly I:C were stained with propidium iodide, and were analyzed with a FACScan® flow cytometer (Becton Dickinson). After cell debris was excluded by an appropriate forward scatter threshold, the percentages of propidium iodide-negative cells were calculated.
Pre-DC2 were cultured for 24 h without stimulation, with the indicated ODNs, or with 50 μg/ml poly I:C. ACC-30, AAC-30, and GAC-30 were added at 5 μM. After cell debris was excluded by an appropriate forward scatter threshold, the percentages of propidium iodide-negative cells were measured by flow cytometry

[2] = test system: pre-DC2; experiment: Flow cytometric analysis of CD80 and CD86 expression on pre-DC2; format: cell-based, human; settings: for expression of CD80 and CD86 on pre-DC2: 5 μM phosphodiester ODN, 24 h
Procedure: as §1, §2
(§3) Freshly isolated pre-DC2 and pre-DC2 stimulated with ODNs for 24 h were stained with PE-conjugated anti-CD80 (L307.4, Becton Dickinson), PE-conjugated anti-CD86 (2331, Pharmingen), or an isotype control antibody. CD11c^+ DC cultured for 24 h without stimulation or with poly I:C were stained with FITC-conjugated anti-CD80 (L307.4), FITC-conjugated anti-CD86 (2331), or an isotype control antibody. The cells were analyzed with a FACScan® flow cytometer. Dead cells were excluded by staining with propidium iodide.
Freshly isolated pre-DC2 and pre-DC2 cultured with the CpG ODNs for 24 h were stained with PE-conjugated anti-CD80 or anti-CD86 mAbs. The upregulation of CD80 and CD86 expression on pre-DC2 is a hallmark of their differentiation into DC. Grouard, et al. (1997) J. Exp'l Med. 185:1101-1111; and Kadowaki, et al. (2000) J. Exp'l Med. 192:219-226.

[3] = test system: CD11c^+ DC; experiment: Cytokine production by CD11c+ DC, ELISA of supernatants; format: cell-based, human; settings: 24 h
Procedure: as §1, §2
(§4) An IFN-α ELISA kit, an IL-12 ELISA kit (Biosource International), and an IFN-β ELISA kit (FUJIREBIO) were used to analyze cytokine production.
(§5) It was examined whether CpG ODNs and poly I:C induce pre-DC2 to produce IFN-α. Cells were stimulated with various CpG ODNs (2117, 2006, 1668: 1 μM, ACC-30, AAC-30, GAC-30: 5 μM) for 24 h, and the concentrations of IFN-α in the supernatants were measured by ELISA. Typically, cytokine is accumulated from cultures of about 2×10^4 cells in 200 μl cultured for 24 h. […] In contrast, AAC-30 and GAC-30 induced pre-DC2 to produce large amounts of IFN-α (AAC-30 508-1806 pg/ml, GAC-30 931-1362 pg/ml). ACC-30 induced pre-DC2 to produce much smaller amounts of IFN-α (18-161 pg/ml). None of the CpG ODNs used here induced CD11c^+ DC and monocytes to produce detectable levels of IFN-α.

[4] = test system: pre-DC2; experiment: Cytokine production by pre-DC2, ELISA of supernatants; format: cell-based, human; settings: 24 h
Procedure: as §1, §2, §4, §5

[5] = test system: monocytes; experiment: Cytokine production by monocytes, ELISA of supernatants; format: cell-based, human; settings: 24 h; for IFN-α production by monocytes: CpG ODNs (2117, 2006, 1668: 1 μM; ACC-30, AAC-30, GAC-30: 5 μM)
Procedure: as §1, §2, §4, §5

[6] = test system: CD11c^+ DC; experiment: Flow cytometric analysis of CD80 and CD86 expression on CD11c+ DC; format: cell-based, human; settings: 50 μg/ml poly I:C, 24 h culture
Procedure: as §2, §3
CD11c^+ DC cultured for 24 h without stimulation or with 50 μg/ml poly I:C were stained with FITC-conjugated anti-CD80 or anti-CD86 mAbs. […] Cella, et al. (1999) J. Exp'l Med. 189:821-829; and Verdijk, et al. (1999) J. Immunol. 163:57-61. […]

[7] = test system: Adult dermal fibroblasts; experiment: IFN-β production by poly I:C stimulated fibroblasts, ELISA; format: cell-based; settings: 50 μg/ml poly I:C, 24 h, 7.5×10^4/ml
Procedure: as §2, §4

[8] = 5 μM phosphodiester ODN added at 0, 4 and 16 h
[9] = CpG ODNs (2117, 2006, 1668: 1 μM; ACC-30, AAC-30, GAC-30: 5 μM)
[10] = 5 μM ODN, about 2×10^4 cells in 200 μl

| Substance | survival of pre-DC2 (propidium iodide-negative cells) [1, 8] | expression of CD80 and CD86 on pre-DC2 [2] | IFN-α production by CD11c+ DC [3, 9] | IFN-α production by pre-DC2 [4, 10] [pg/mL] | IFN-α production by monocytes [5] | also measured |
| --- | --- | --- | --- | --- | --- | --- |
| AAC-30: palindromic CpG oligodeoxynucleotide ACCGATAACGTTGCCGGTGACGGCACCACG (DNA, all phosphodiester, methylation of C not given here) | maintained the survival of pre-DC2 | upregulated CD80 and CD86, albeit to a lesser extent than 2006 and 2117 | did not produce detectable levels of IFN-α | 508 to 1806 | did not produce detectable levels of IFN-α |  |
| ACC-30: oligodeoxynucleotide ACCGATACCGGTGCCGGTGACGGCACCACG (DNA, all phosphodiester, methylation of C not given here) | less efficient |  |  | 18 to 161 |  |  |
| polyinosinic polycytidylic acid [poly I:C] |  |  |  |  |  | survival of pre-DC2 (propidium iodide-negative cells) ([1]; 50 μg/ml poly I:C): did not maintain the survival of pre-DC2; differentiation of pre-DC2 into DC ([2]; poly I:C): does not stimulate pre-DC2 to survive and to differentiate into DC; IFN-α production by CD11c+ DC ([3]; 50 μg/ml poly I:C): 24.1 to 97.9 pg/mL; IFN-β production by CD11c+ DC ([3]; 50 μg/ml poly I:C): 33.6 to 166.5 pg/mL; IL-12 production by CD11c+ DC ([3]; 50 μg/ml poly I:C): 17.7 to 137.7 pg/mL; expression of CD80 and CD86 on CD11c+ DC [6]: strongly upregulated; IFN-α production by pre-DC2 ([4]; 50 μg/ml poly I:C): did not induce pre-DC2 to produce a detectable level of IFN-α; IFN-β production by fibroblasts [7]: 28.6 to 48.5 pg/mL; IFN-β production by monocytes ([5]; 50 μg/ml poly I:C): but not pre-DC2 or monocytes |
| GAC-30: palindromic CpG oligodeoxynucleotide ACCGATGACGTCGCCGGTGACGGCACCACG (DNA, all phosphodiester, methylation of C not given here) | maintained the survival of pre-DC2 | upregulated CD80 and CD86, albeit to a lesser extent than 2006 and 2117 | did not produce detectable levels of IFN-α | 931 to 1362 | did not produce detectable levels of IFN-α |  |
| 1668: CpG oligodeoxynucleotide TCCATGACGTTCCTGATGCT (DNA, all phosphorothioate, methylation of C not given here) [compound 1668] |  |  |  |  |  | survival of pre-DC2 (propidium iodide-negative cells) ([1]; 1 μM phosphorothioate ODN): did not maintain the survival of pre-DC2; IFN-α production by pre-DC2 ([4]; 1 μM ODN, about 2×10^4 cells in 200 μl): did not induce pre-DC2 to produce detectable levels of IFN-α |
